Structures can show the parent of a compound that is named as a salt. Where two headings read alike, the source gives them in different places.
Experiments:
[1] = tested on: prolactin; experiment: inhibition of serum prolactin in reserpine-pretreated male rats; format: in vivo, rat (Sprague-Dawley); details: for inhibition at 0.05 mg/kg: Rattus norvegicus, ip, read-out: Percent Inhibition of Serum Prolactin
Method: Adult male rats of the Sprague-Dawley strain weighing about 200 g. were housed in an air-conditioned room with controlled lighting (lights on 6 a.m.-8 p.m.) and fed lab chow and water ad libitum. Each rat received an intraperitoneal injection of 2.0 mg. of reserpine in aqueous suspension 18 hours before administration of the ergoline derivative. The purpose of the reserpine was to keep prolactin levels uniformly elevated. The compounds under test were dissolved in 10 percent ethanol at a concentration of 10 mcg/ml. and were injected intraperitoneally at a standard dose of 50 mcg/kg. Each compound was administered to a group of 10 rats, and a control group of 10 intact males received an equivalent amount of 10 percent ethanol. One hour after treatment all rats were killed by decapitation, and 150 μl aliquots of serum were assayed for prolactin. The results were evaluated statistically using Student's "t" test to calculate the level of significance, "p", of the changes in prolactin level.
The difference between the prolactin level of the treated rats and prolactin level of the control rats, divided by the prolactin level of the control rats gives the percent inhibition of prolactin secretion attributable to the compounds of this invention. In the table, column 1 gives the name of the compound; column 2, the prolactin level for each group of rats; column 3, the percent prolactin inhibition; and column 4, the level of significance. The data were collected from three separate experiments, each with its own control, and Table 2 sets forth the results obtained by experiment.

[2] = target: dopamine receptors; experiment: inhibition of high affinity binding of tritiated dopamine to dopamine receptors in membranes from striatal synaptosomes of bovine brain; details: for Ki: Table 3, tritiated dopamine, striatal synaptosomes of bovine brain
[3] = tested on: 6-hydroxydopamine-lesioned rats (dopamine agonist activity); experiment: rat turning test (turning behavior contralateral to lesion in 6-hydroxydopamine-lesioned rats); format: in vivo; details: for Average Number of Turns/rat: first 15 minutes after end of latency period
Method: In this test, nigro-neostriatal-lesioned rats are employed, which are prepared by the procedure of Ungerstedt and Arbuthnott, Brain Res, 24, 485 (1970). A compound having dopamine agonist activity causes the rats to turn in circles contralateral to the side of the lesion. After a latency period, which varies from compound to compound, the number of turns is counted over a 15-minute period.
The compounds were dissolved in water and the aqueous solution injected into the rat by the intraperitoneal route.

[4] = tested on: serotonin; experiment: serotonin agonist activity
[5] = tested on: prolactin; details: literature; cited from earlier work
[6] = tested on: dopamine receptor; details: literature; cited from earlier work
[7] = background; cited from earlier work
[8] = tested on: Parkinsonism; details: literature; cited from earlier work
[9] = tested on: prolactin; experiment: inhibition of serum prolactin in reserpine-pretreated male rats; format: in vivo, rat (Sprague-Dawley); details: from dose response curves
[10] = Experiment 3, 50 mcg/kg i.p., 1 hour, control 42.3 ± 7.3, P <0.001
[11] = Experiment 1, 50 mcg/kg i.p., 1 hour, control 30.4 ± 3.4, P <0.001 or <0.01

SMILES	inhibition at 0.05 mg/kg ([1]; 1 h) [%]	Ki [2] [nM]	% of Rats Exhibiting Turning Behavior ([3]; IP dose 1 mg/kg, Table I) [%]	Duration of Effect ([3]; IP dose 1 mg/kg, Table I) [h]	Latency of Effect ([3]; IP dose 1 mg/kg, Table I) [min]	Average Number of Turns/rat ([3]; IP dose 1 mg/kg, Table I) [Turns/rat]	also measured
CCN1C[C@H](CSC)C[C@@H]2c3cccc4[nH]cc(c34)C[C@H]21 [D-6-ethyl-8β-methylmercaptomethylergoline]	91	3.5	100	≥ 2	9	112	Serum Prolactin Level [1, 10]: 3.9 ± 0.4 ng/mL
CCCN1C[C@H](CSC)C[C@@H]2c3cccc4[nH]cc(c34)C[C@H]21 [D-6-n-propyl-8β-methylmercaptomethylergoline]							inhibition of high affinity binding of tritiated dopamine (in words) ([2]; bovine striatal synaptosome membranes): extremely potent inhibitors; serotonin activity (in words) [4]: serotonin agonists rather than serotonin antagonists
CCCN1C[C@H](C[S+](C)[O-])C[C@@H]2c3cccc4[nH]cc(c34)C[C@H]21 (stereo partly drawn) [D-6-n-propyl-8β-methylsulfinylmethylergoline]	92		100	1	7	65	Serum Prolactin Level [1, 10]: 3.3 ng/mL
CC(C)[C@H]1C(=O)N2CCC[C@H]2[C@]2(O)O[C@](NC(=O)[C@@H]3C=C4c5cccc6[nH]cc(c56)C[C@H]4N(C)C3)(C(C)C)C(=O)N12 [Ergocornine]							prolactin inhibitor activity (in words) [5]: activity as prolactin inhibitors; dopamine receptor stimulation (in words) [6]: direct dopamine receptor stimulants of long duration
N[C@@H](Cc1ccc(O)c(O)c1)C(=O)O [1-dopa, 1-dihydroxyphenylalanine]							metabolism (in words) [7]: rapidly metabolized
CC(C)C[C@H]1C(=O)N2CCC[C@H]2[C@]2(O)O[C@](NC(=O)[C@@H]3C=C4c5cccc6[nH]c(Br)c(c56)C[C@H]4N(C)C3)(C(C)C)C(=O)N12 [2-bromo-α-ergokryptine]							prolactin inhibitor activity (in words) [5]: activity as prolactin inhibitors; treatment of Parkinsonism (in words) [8]: useful in the treatment of Parkinsonism; dopamine receptor stimulation (in words) [6]: stimulate dopamine receptors
CSC[C@@H]1C[C@@H]2c3cccc4[nH]c(Cl)c(c34)C[C@H]2N(C)C1 [D-2-chloro-6-methyl-8β-methylmercaptomethylergoline mesylate, reference compound]		6					
CCCN1C[C@H](COC)C[C@@H]2c3cccc4[nH]cc(c34)C[C@H]21 [D-6-n-propyl-8β-methoxymethylergoline methanesulfonate]	96	10	100	≥ 2	6	111	Serum Prolactin Level ([1]; Experiment 2, 50 mcg/kg i.p., 1 hour, control 55.2 ± 4.1, P <0.001): 2.4 ± 0.2 ng/mL
CCCN1CC(CSC)=C[C@@H]2c3cccc4[nH]cc(c34)C[C@H]21 [D-6-n-propyl-8-methylmercaptomethyl-8-ergolene]	91	2	100	1	4	118	Serum Prolactin Level [1, 10]: 3.9 ± 0.2 ng/mL
CN1CC(CC#N)C[C@@H]2c3cccc4[nH]cc(c34)C[C@H]21 (stereo partly drawn) [D-6-methyl-8-cyanomethylergoline]							prolactin inhibitor activity (in words) [5]: activity as prolactin inhibitors
CN1C[C@H](CC#N)C[C@@H]2c3cccc4[nH]c(Cl)c(c34)C[C@H]21 [lergotrile]							treatment of Parkinsonism (in words) [8]: useful in the treatment of Parkinsonism
C=CCN1C[C@H](CSC)C[C@@H]2c3cccc4[nH]cc(c34)C[C@H]21 [D-6-allyl-8β-methylmercaptomethylergoline]		5					
CSC[C@@H]1C=C2c3cccc4[nH]cc(c34)C[C@H]2N(C)C1 [D-6-methyl-8β-methylmercaptomethyl-9-ergolene, reference compound]		6					
CCCN1C[C@H](CSC)C[C@@H]2c3cccc4[nH]c(Br)c(c34)C[C@H]21 [D-2-bromo-6-n-propyl-8β-methylmercaptomethylergoline]	89	3	100	1	5	71	Serum Prolactin Level [1, 10]: 4.6 ± 0.4 ng/mL
CCCN1C[C@H](CSC)C[C@@H]2c3cccc4[nH]cc(c34)C[C@H]21 [D-6-n-propyl-8β-methylmercaptomethylergoline methanesulfonate]		3 ± 1		≥ 24	5 to 7	105	Serum Prolactin Level [1, 11]: 1.6 ± 0.4 ng/mL; inhibition at 0.05 mg/kg ([1]; Experiment 1, 50 mcg/kg i.p., 1 hour, P <0.001 (n-propyl), <0.01 (methyl)): 95%; average turns per lesioned rat ([3]; 15-minute period after latency): 105 turns per lesioned rat; potency in the turning behavior test relative to the corresponding D-6-methyl derivative ([3]; from dose response curves, 6-hydroxydopamine-lesioned rats): about 30 times; potency as a prolactin inhibitor relative to the corresponding D-6-methyl compound [9]: about 100 times
CC(C)[C@H]1C(=O)N2CCC[C@H]2[C@]2(O)O[C@](NC(=O)[C@@H]3C[C@@H]4c5cccc6[nH]cc(c56)C[C@H]4N(C)C3)(C(C)C)C(=O)N12 [dihydroergocornine]							prolactin inhibitor activity (in words) [5]: activity as prolactin inhibitors
COC[C@@H]1C[C@@H]2c3cccc4[nH]cc(c34)C[C@H]2N(C)C1 [D-6-methyl-8β-methoxymethylergoline mesylate, reference compound]		75					
CCCN1C[C@H](CSC)C=C2c3cccc4[nH]cc(c34)C[C@H]21 [D-6-n-propyl-8β-methylmercaptomethyl-9-ergolene]	81	2	100	≥ 2	4	200	Serum Prolactin Level [1, 10]: 8.1 ± 1.2
CSC[C@@H]1C[C@@H]2c3cccc4[nH]cc(c34)C[C@H]2N(C)C1 [D-6-methyl-8β-methylmercaptomethylergoline mesylate, reference compound]	58	13	50		30 to 45	51	Serum Prolactin Level [1, 11]: 12.8; Duration of Effect in Hours ([3]; IP dose 1 mg/kg, Table I): ~ 2 Hours
